Laboratory results reported in patent US12050224B2, “Compounds useful as near-infrared fluorescent probes selectively binding to tau aggregates and method of preparing the same” (KOREA INSTITUTE OF SCIENCE AND TECHNOLOGY, priority 2020, dated 2024).

Assays:
[1] = Measurement of absorbance and fluorescence of synthesized compound in ethanol; type: physicochemical; details: 10 μM in ethanol; for λem: Maximum emission wavelength / λex: Maximum excitation wavelength: average of three measurements; for Stokes shift: difference between excitation and emission
Procedure: In order to investigate the optical properties of the newly synthesized compound in the present invention, the absorbance was measured using a V-730 UV-visible spectrophotometer manufactured by JASCO, and fluorescence was measured using a FlexStation 3 multi-mode microplate reader manufactured by Molecular Devices. Absorbance and fluorescence were measured three times at a concentration of 10 μM in ethanol, and the average thereof is shown in Table 1 below. At this time, T807 (AV-1451) as a Tau positron-emission-tomography (PET) tracer and Thioflavin S, which are commercially available to detect tau production in vivo, were used as a control group.

[2] = target: T1, tau aggregates (Tau-K18 protein) (Homo sapiens, UniProt P10636); assay: In vitro binding assay (fluorescence labeling ability) to tau aggregates; details: for SIaβ: selectivity index = fluorescence intensity of probe bound to Tau aggregate / bound to Aβ aggregate / SItaumono: selectivity index, tau aggregate versus tau monomer / FItau: fold increase = fluorescence intensity of probe bound to tau aggregate / probe (free): compound 10 μM; for FItau: fold increase = fluorescence intensity of probe bound to tau aggregate / probe (free): PBS, 30 min incubation; for selectivity for tau aggregates over amyloid aggregates: in vitro screening as fluorescent probes
T1 construct: aggregation of Tau-K18 protein (0.5 mg/ml in PBS) purified and isolated from E. coli; made in house; host or cells: E. coli
T1 sequence (P10636 561-685 limits assumed): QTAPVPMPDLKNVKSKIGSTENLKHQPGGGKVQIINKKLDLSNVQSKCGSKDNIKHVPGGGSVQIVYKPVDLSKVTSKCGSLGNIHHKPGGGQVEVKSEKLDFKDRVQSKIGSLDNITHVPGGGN
Procedure: (§1) Experimental Example 2-1: Tau and amyloid beta aggregation induction For amyloid aggregation induction, the synthesized Abeta40 (Amyloid Beta 40) peptide was dissolved in PBS at a concentration of 0.5 mg/ml to induce aggregation for 7 days at 37° C. and 200 rpm with shaking. To induce aggregation of tau proteins, aggregation of Tau-K18 protein (0.5 mg/ml in PBS) purified and isolated from E. coli with heparin (0.1 mg/ml) and DTT (100 μM) was induced at 37° C. and 200 rpm for 7 days under shaking conditions. […] At this time, thioflavin S (Th S), which is known to bind to beta-sheet structures such as tau and amyloid aggregates, was used as a control group (Ex: 430 nm, Em: 480-610 nm). Specifically, in order to determine the labeling ability of newly synthesized compounds to tau aggregate proteins, a 25 μl dilution of a 10 μM labeling substance in PBS and 25 id of a 0.125 mg/ml tau or amyloid pre-aggregate or aggregate diluted in PBS were each incubated for 30 minutes, and then a fluorescence spectrum reaction was measured using a spectrophotometer. Selectivity analysis for tau aggregates and amyloid beta aggregates of the novel synthetic compounds of the present invention was performed as described above, and the resulting in vitro fluorescence changes are summarized in Table 2 and FIG. 1 below.

[3] = target: T2, amyloid beta aggregates (Abeta40) (Homo sapiens, UniProt P05067); assay: In vitro binding assay (fluorescence labeling ability) to amyloid beta aggregates; details: compound 10 μM, PBS, 30 min incubation
T2 construct: the synthesized Abeta40 (Amyloid Beta 40) peptide was dissolved in PBS; host or cells: synthetic peptide
T2 sequence (P05067 672-711 limits assumed): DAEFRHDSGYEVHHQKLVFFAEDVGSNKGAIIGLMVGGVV
Procedure: as §1

[4] = target: bovine serum albumin (BSA) (Bos taurus, UniProt P02769); assay: Measurement of non-specific binding using BSA; details: for FIBSA: fold increase = fluorescence intensity of probe bound to BSA / probe (free): compound 10 μM, 0.25 mg/ml BSA, 30 min incubation
bovine serum albumin (BSA), sequence (P02769 25-607): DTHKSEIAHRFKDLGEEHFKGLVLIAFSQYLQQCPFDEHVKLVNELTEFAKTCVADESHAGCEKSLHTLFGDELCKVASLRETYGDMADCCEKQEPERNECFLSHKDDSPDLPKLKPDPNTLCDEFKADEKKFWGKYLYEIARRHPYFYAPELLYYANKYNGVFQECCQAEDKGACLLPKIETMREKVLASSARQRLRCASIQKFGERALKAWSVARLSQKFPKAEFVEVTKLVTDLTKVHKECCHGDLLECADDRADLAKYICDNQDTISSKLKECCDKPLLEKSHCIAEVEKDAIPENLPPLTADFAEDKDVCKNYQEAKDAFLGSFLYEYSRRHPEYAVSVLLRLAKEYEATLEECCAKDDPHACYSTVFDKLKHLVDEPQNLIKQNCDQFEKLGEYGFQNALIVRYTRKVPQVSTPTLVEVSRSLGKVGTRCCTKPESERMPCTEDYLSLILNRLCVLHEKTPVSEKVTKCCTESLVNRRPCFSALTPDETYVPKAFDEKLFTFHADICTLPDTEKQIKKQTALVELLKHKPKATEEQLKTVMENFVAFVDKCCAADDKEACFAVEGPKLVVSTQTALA
Procedure: In order to exclude non-specific binding of the compound to serum, reactivity between the compound and bovine serum albumin (BSA) was further tested. 25 μl of a 10 μM compound was incubated along with 25 μl of 0.25 mg/ml BSA for 30 minutes, and then the fluorescence spectrum reaction was measured using a spectrophotometer. The BSA response was conducted to identify non-selective binding to other proteins in the blood when applied to patients as an imaging agent.

Molecule | λem: Maximum emission wavelength [1] [nm] | λex: Maximum excitation wavelength [1] [nm] | Stokes shift [1] [nm] | SIaβ: selectivity index = fluorescence intensity of probe bound to Tau aggregate / bound to Aβ aggregate [2] | SItaumono: selectivity index, tau aggregate versus tau monomer [2] | FItau: fold increase = fluorescence intensity of probe bound to tau aggregate / probe (free) [2] | selectivity for tau aggregates over amyloid aggregates [2] [times] | FIAβ: fold increase = fluorescence intensity of probe bound to Aβ aggregate / probe (free) [3] | FIBSA: fold increase = fluorescence intensity of probe bound to BSA / probe (free) [4] | reactivity to BSA ([4]; in words)
COc1ccc2nc(/C=C/C=C/c3cccc([N+](=O)[O-])c3)ccc2c1 [Compound 15g, 6-methoxy-2-((1E,3E)-4-(3-nitrophenyl)buta-1,3-dien-1-yl)quinolone] | 452 | 361 | 91 | 5.8 | 3.7 | 3.42 | 5.8 | 0.58 | 1.33 | –
COc1ccc2nc(/C=C/C=C/c3ccc(F)cc3F)ccc2c1 [Compound 15h, 6-methoxy-2-((1E,3E)-4-(2.4-difluorophenyl)buta-1,3-dien-1-yl)quinolone] | 415 | 360 | 55 | 1.5 | 2.8 | 2.35 | – | 1.56 | 0.70 | –
CNc1ccc(/C=C/C=C/C(=O)c2ccc3cc(OC)ccc3n2)cc1 [Compound 16b, (2E,4E)-1-(6-methoxyquinolin-2-yl)-5-(4-(methylamino)phenyl)penta-2,4-dien-1-one] | 714 | 475 | 239 | 1.0 | 2.1 | 9.22 | – | 9.45 | 56.71 | –
COc1ccc2nc(C(=O)/C=C/C=C/c3ccc(N(C)C)cc3)ccc2c1 [Compound 16c, (2E,4E)-5-(4-(dimethylamino)phenyl)-1-(6-methoxyquinolin-2-yl)penta-2,4-dien-1-one] | 678 | 450 | 228 | 1.2 | 1.7 | 1.71 | – | 1.43 | 1.29 | –
COc1ccc2nc(C(=O)/C=C/C=C/c3ccc(N(C)C)nc3)ccc2c1 [Compound 16d, (2E,4E)-5-(6-(dimethylamino)pyridin-3-yl)-1-(6-methoxyquinolin-2-yl)penta-2,4-dien-1-one] | 637 | 425 | 212 | 3.5 | 3.9 | 3.82 | 3.5 | 1.10 | 1.26 | –
COc1ccc2nc(C(=O)/C=C/C=C/c3ccc(N(C)CCO)cc3)ccc2c1 [Compound 16e] | 658 | 436 | 222 | 2.5 | 3.0 | 3.90 | – | 1.55 | 1.59 | –
Thioflavin S [reference compound] | 451 | 347 | 104 | 0.8 | 4.3 | 15.32 | – | 19.95 | 7.133 | high reactivity
